Data from US20240083857A1, “2-Methyl-Quinazolines” (Bayer Pharma Aktiengesellschaft, priority 2017, published 2024).
pIC50: −log10 of the molar value.

Tests used:
[1] = biological target: K-Ras^G12C : hSOS1 interaction (Homo sapiens, UniProt Q07889); assay: Biochemical assay 1: K-Ras^G12C interaction assay with hSOS1 (HTRF); assay type: binding; conditions: for pIC50: read-out: Assay 1 (KRAS-SOS Interaction) activity expressed as IC50
[2] = biological target: human SOS1 (loading of human K-Ras^G12C-GDP with fluorescent GTP-analog) (Homo sapiens, UniProt Q07889); assay: Biochemical assay 3: K-Ras^G12C activation assay by hSOS1 (HTRF); conditions: no GTP; for pIC50: read-out: Assay 3 (KRAS-Activation by SOS no GTP) activity expressed as IC50; for inhibition at 20 µM: read-out: Assay 3 (KRAS-Activation by SOS no GTP) activity expressed as % inhibition at 20 μM
[3] = biological target: human SOS1 (nucleotide exchange of K-Ras^G12C) (Homo sapiens, UniProt Q07889); assay: Biochemical assay 2: K-Ras^G12C activation assay by hSOS1 at high GTP concentration (HTRF); conditions: high GTP; for pIC50: read-out: Assay 2 (KRAS-Activation by SOS high GTP) activity expressed as IC50; for inhibition at 20 µM: read-out: Assay 2 (KRAS-Activation by SOS high GTP) activity expressed as % inhibition at 20 μM

Row | Compound | pIC50 [1] | pIC50 [2] | pIC50 [3] | inhibition at 20 µM [2] [%] | inhibition at 20 µM [3] [%] | inhibition at 20 µM ([1]; read-out: Assay 1 (KRAS-SOS Interaction) activity expressed as % inhibition at 20 μM) [%]
1 | COc1cc2nc(C)nc(N[C@H](C)c3cccc(-c4cccc(-c5nnc(C)o5)c4)c3)c2cc1OC [Example 55, 6,7-dimethoxy-2-methyl-N-{(1R)-1-[3′-(5-methyl-1,3,4-oxadiazol-2-yl)biphenyl-3-yl]ethyl}quinazolin-4-amine] | 6.17 | 6.14 | 6.20 |  |  | 
2 | COc1cc2nc(C)nc(N[C@H](C)c3cccc(-c4cncc(S(C)(=O)=O)c4)c3)c2cc1OC [Example 56, 6,7-dimethoxy-2-methyl-N-[(1R)-1-{3-[5-(methylsulfonyl)pyridin-3-yl]phenyl}ethyl]quinazolin-4-amine] | 5.83 | 5.59 | 5.75 |  |  | 
3 | COc1cc2nc(C)nc(N[C@H](C)c3cccc(-c4ccc5c(c4)CC(=O)N5)c3)c2cc1OC [Example 57, 5-(3-{(1R)-1-[(6,7-dimethoxy-2-methylquinazolin-4-yl)amino]ethyl}phenyl)-1,3-dihydro-2H-indol-2-one] | 6.38 | 6.20 | 6.40 |  |  | 
4 | COc1cc2nc(C)nc(N[C@H](C)c3cccc(C4CC4(C)C)c3)c2cc1OC (stereo partly drawn) [Example 58, N-{(1R)-1-[3-(2,2-dimethylcyclopropyl)phenyl]ethyl}-6,7-dimethoxy-2-methylquinazolin-4-amine] | 5.75 | 5.51 | 5.79 |  |  | 
5 | COc1cc2nc(C)nc(N[C@H](C)c3cccc(-c4ccc(-c5nnc(C)o5)cc4)c3)c2cc1OC [Example 59, 6,7-dimethoxy-2-methyl-N-{(1R)-1-[4′-(5-methyl-1,3,4-oxadiazol-2-yl)biphenyl-3-yl]ethyl}quinazolin-4-amine] | 5.80 | 6.02 | 6.11 |  |  | 
6 | COc1cc2nc(C)nc(N[C@H](C)c3cccc(-c4cnc5[nH]ccc5c4)c3)c2cc1OC [Example 60, 6,7-dimethoxy-2-methyl-N-{(1R)-1-[3-(1H-pyrrolo[2,3-b]pyridin-5-yl)phenyl]ethyl}quinazolin-4-amine] | 6.23 | 5.98 | 6.35 |  |  | 
7 | COc1cc2nc(C)nc(N[C@H](C)c3cccc(-c4cccc(S(N)(=O)=O)c4)c3)c2cc1OC [Example 61, 3′-{(1R)-1-[(6,7-dimethoxy-2-methylquinazolin-4-yl)amino]ethyl}biphenyl-3-sulfonamide] | 6.43 | 6.05 | 6.14 |  |  | 
8 | COc1cc2nc(C)nc(N[C@H](C)c3cccc(-c4cnc(N)nc4)c3)c2cc1OC [Example 62, N-{(1R)-1-[3-(2-aminopyrimidin-5-yl)phenyl]ethyl}-6,7-dimethoxy-2-methylquinazolin-4-amine] | 5.90 | 5.58 | 5.56 |  |  | 
9 | COc1cc2nc(C)nc(N[C@H](C)c3cccc(/C=C/C4CC4)c3)c2cc1OC [Example 63, N-[(1R)-1-{3-[(E)-2-cyclopropylethenyl]phenyl}ethyl]-6,7-dimethoxy-2-methylquinazolin-4-amine] | 5.95 | 5.73 | 5.74 |  |  | 
10 | CCOCc1ccccc1-c1cccc([C@@H](C)Nc2nc(C)nc3cc(OC)c(OC)cc23)c1 [Example 64, N-{(1R)-1-[2′-(ethoxymethyl)biphenyl-3-yl]ethyl}-6,7-dimethoxy-2-methylquinazolin-4-amine] | 5.85 | 5.66 | 5.71 |  |  | 
11 | COc1cc(F)cc(-c2cccc([C@@H](C)Nc3nc(C)nc4cc(OC)c(OC)cc34)c2)c1 [Example 65, N-[(1R)-1-(3′-fluoro-5′-methoxybiphenyl-3-yl)ethyl]-6,7-dimethoxy-2-methylquinazolin-4-amine] | 5.24 | 4.87 | 5.08 |  |  | 
12 | COc1ccc2oc(-c3cccc([C@@H](C)Nc4nc(C)nc5cc(OC)c(OC)cc45)c3)cc2c1 [Example 66, 6,7-dimethoxy-N-{(1R)-1-[3-(5-methoxy-1-benzofuran-2-yl)phenyl]ethyl}-2-methylquinazolin-4-amine] | 5.46 | 5.18 | 5.34 |  |  | 
13 | CCCCOc1cccc(F)c1-c1cccc([C@@H](C)Nc2nc(C)nc3cc(OC)c(OC)cc23)c1 [Example 67, N-[(1R)-1-(2′-butoxy-6′-fluorobiphenyl-3-yl)ethyl]-6,7-dimethoxy-2-methylquinazolin-4-amine] | 5.00 |  | 4.71 | 54 |  | 
14 | COc1cc2nc(C)nc(N[C@H](C)c3cccc(-c4ccc(C(C)(C)C#N)cc4)c3)c2cc1OC [Example 69, 2-(3′-{(1R)-1-[(6,7-dimethoxy-2-methylquinazolin-4-yl)amino]ethyl}biphenyl-4-yl)-2-methylpropanenitrile] | 5.41 | 5.04 | 5.27 |  |  | 
15 | COc1cc2nc(C)nc(N[C@H](C)c3cccc(-c4cccc(CNS(C)(=O)=O)c4)c3)c2cc1OC [Example 71, N-[(3′-{(1R)-1-[(6,7-dimethoxy-2-methylquinazolin-4-yl)amino]ethyl}biphenyl-3-yl)methyl]methanesulfonamide] | 6.41 | 6.17 | 6.19 |  |  | 
16 | COc1cc2nc(C)nc(N[C@H](C)c3cccc(-c4ccc(CNS(C)(=O)=O)cc4)c3)c2cc1OC [Example 72, N-[(3′-{(1R)-1-[(6,7-dimethoxy-2-methylquinazolin-4-yl)amino]ethyl}biphenyl-4-yl)methyl]methanesulfonamide] | 6.13 | 6.05 | 6.18 |  |  | 
17 | CCCNC(=O)c1ccc(-c2cccc([C@@H](C)Nc3nc(C)nc4cc(OC)c(OC)cc34)c2)cc1 [Example 73, 3′-{(1R)-1-[(6,7-dimethoxy-2-methylquinazolin-4-yl)amino]ethyl}-N-propylbiphenyl-4-carboxamide] | 6.37 | 6.31 | 6.26 |  |  | 
18 | COc1cc2nc(C)nc(N[C@H](C)c3cccc(-c4ccc(C(=O)NCCN(C)C)cc4)c3)c2cc1OC [Example 74, 3′-{(1R)-1-[(6,7-dimethoxy-2-methylquinazolin-4-yl)amino]ethyl}-N-[2-(dimethylamino)ethyl]biphenyl-4-carboxamide] | 6.83 | 6.58 | 6.65 |  |  | 
19 | COc1cc2nc(C)nc(N[C@H](C)c3cccc(-c4ccn[nH]4)c3)c2cc1OC [Example 75, 6,7-dimethoxy-2-methyl-N-{(1R)-1-[3-(1H-pyrazol-3-yl)phenyl]ethyl}quinazolin-4-amine] | 6.23 | 6.00 | 5.94 |  |  | 
20 | C/C=C(\C)c1cccc([C@@H](C)Nc2nc(C)nc3cc(OC)c(OC)cc23)c1 [Example 76, N-[(1R)-1-{3-[(2E)-but-2-en-2-yl]phenyl}ethyl]-6,7-dimethoxy-2-methylquinazolin-4-amine] | 6.33 | 6.02 | 5.92 |  |  | 
21 | CCCOc1ccc(Cl)cc1-c1cccc([C@@H](C)Nc2nc(C)nc3cc(OC)c(OC)cc23)c1 [Example 77, N-[(1R)-1-(5′-chloro-2′-propoxybiphenyl-3-yl)ethyl]-6,7-dimethoxy-2-methylquinazolin-4-amine] | 5.10 | 4.70 | 5.02 |  |  | 
22 | COc1cc2nc(C)nc(N[C@H](C)c3cccc(/C=C/Cc4ccccc4)c3)c2cc1OC [Example 78, 6,7-dimethoxy-2-methyl-N-[(1R)-1-{3-[(1E)-3-phenylprop-1-en-1-yl]phenyl}ethyl]quinazolin-4-amine] | 5.07 |  |  | 31 | 45 | 
23 | COc1cc2nc(C)nc(N[C@H](C)c3cccc(-c4ccc(N5CCOCC5)cc4)c3)c2cc1OC [Example 79, 6,7-dimethoxy-2-methyl-N-{(1R)-1-[4′-(morpholin-4-yl)biphenyl-3-yl]ethyl}quinazolin-4-amine] | 5.81 | 5.78 | 6.03 |  |  | 
24 | COc1cc2nc(C)nc(N[C@H](C)c3cccc(-c4cccc(N5CCOCC5)c4)c3)c2cc1OC [Example 80, 6,7-dimethoxy-2-methyl-N-{(1R)-1-[3′-(morpholin-4-yl)biphenyl-3-yl]ethyl}quinazolin-4-amine] | 6.14 | 5.95 | 6.15 |  |  | 
25 | COc1cc2nc(C)nc(N[C@H](C)c3cccc(-c4ccccc4OCc4ccccc4)c3)c2cc1OC [Example 81, N-{(1R)-1-[2′-(benzyloxy)biphenyl-3-yl]ethyl}-6,7-dimethoxy-2-methylquinazolin-4-amine] |  |  |  | 24 | 33 | 42
26 | COc1cc2nc(C)nc(N[C@H](C)c3cccc(-c4ccc(S(C)(=O)=O)cc4)c3)c2cc1OC [Example 82, 6,7-dimethoxy-2-methyl-N-{(1R)-1-[4′-(methylsulfonyl)biphenyl-3-yl]ethyl}quinazolin-4-amine] | 6.22 | 6.00 | 6.07 |  |  | 
27 | COc1cc2nc(C)nc(N[C@H](C)c3cccc(-c4ccccc4OC(F)(F)F)c3)c2cc1OC [Example 83, 6,7-dimethoxy-2-methyl-N-{(1R)-1-[2′-(trifluoromethoxy)biphenyl-3-yl]ethyl}quinazolin-4-amine] | 5.07 | 4.76 | 5.11 |  |  | 
28 | COc1cc2nc(C)nc(N[C@H](C)c3cccc(-c4cccc(OC(F)(F)F)c4)c3)c2cc1OC [Example 84, 6,7-dimethoxy-2-methyl-N-{(1R)-1-[3′-(trifluoromethoxy)biphenyl-3-yl]ethyl}quinazolin-4-amine] | 5.27 | 4.96 | 5.14 |  |  | 
